Measurements taken from US9434695B2, “Nitrogenous heterocyclic derivatives and their application in drugs” (SUNSHINE LAKE PHARMA CO., LTD., priority 2012, dated 2016).
pIC50: −log10 of the molar value.

Key:
BHK-21 cells = assay: inhibition of BHK-21 cell proliferation (CCK-8, optical density at 450 nm); type: cell-based; conditions: for pIC50: Mesocricetus auratus, inhibition ratio of cell proliferation, 48 hours after dosing, CCK-8; for The ratio with PFD (multiple): ratio of Pirfenidone IC50 from the compound IC50, the bigger the multiple, the better the vitro inhibitory activity, 48 hours
Procedure: Taking BHK-21 cells which in exponential growth phase, collecting and counting the cells which had digestive transfer culture after fusion growth 85-95%, adjusting the cell density to 2×10^4 cells per milliliter, seeding the cells into 96-well plates, 100 μl/well, the cells were incubated in a 5% CO2 incubator at 37° C.
The upper clear liquid of the 96-well plates was removed after the cells adhering to the wall 24 hours. The above compounds were confected into solutions of different concentration and the solutions were added to the wells, 100 μl/well. Each concentration solution in 3 replicates, the cells were subcultured 48 hours after dosing.
3. Testing the Optical Density
10 μl of CCK-8 solution was added to each well 48 hours after dosing, and incubated for 2 hours. The optical density (A) of each well was determined by a microplate reader at 450 nm wavelength. Calculating the inhibition ratio of cell proliferation of each compound is based on A and the inhibition ratio of cell proliferation (inhibition ratio, IR)=(1−value of experimental group (Ai)/value of control group (Ao))×100% and the IC50 of each compound at 48 hours was calculated by data processing software.

ECM gathering = conditions: animal experiments of renal fibrosis, pulmonary fibrosis; clinical trials of patients with specific lung fibrosis; cited from earlier work

Row | SMILES | pIC50 (BHK-21 cells) | The ratio with PFD (multiple) (BHK-21 cells) | effect on ECM gathering (ECM gathering)
1 | Cc1cc(=O)n(-c2ccc(N3CCOCC3)c(Cl)c2)c(COc2cccc(C#N)c2)n1 [Example 65, 3-((1-(3-chloro-4-morpholinophenyl)-4-methyl-6-oxo-1,6-dihydropyrimidin-2-yl)methoxy)benzonitrile] | 4.70 | 119.61 multiple | 
2 | Cc1cc(=O)n(-c2ccc(N3CCOCC3=O)c(F)c2)c(COc2cccc(F)c2)n1 [Example 66, 4-(2-fluoro-4-(2-((3-fluorophenoxy)methyl)-4-methyl-6-oxopyrimidin-1(6H)-yl)phenyl) morpholin-3-one] | 3.64 | 14.95 multiple | 
3 | Cc1cc(=O)n(-c2ccc(N3CCOCC3)c(Cl)c2)c(COc2ccc(Cl)c3ccccc23)n1 [Example 67] | 3.85 | 25.09 multiple | 
4 | C#Cc1cccc(OCc2nc(C)cc(=O)n2-c2ccc(N3CCOCC3)c(F)c2)c1 [Example 68] | 3.96 | 26.80 multiple | 
5 | Cc1cc(=O)n(-c2ccc(N3CCOCC3)c(F)c2)c(C(F)(F)Oc2cccc(F)c2)n1 [Example 69, 2-(difluoro(3-fluorophenoxy)methyl)-3-(3-fluoro-4-morpholinophenyl)-6-methylpyrimidin-4(3H)-one] | 4.05 | 42.03 multiple | 
6 | COc1cccc(OCc2nc(C)cc(=O)n2-c2ccc(N3CCOCC3)c(F)c2)c1 [Example 71, 3-(3-fluoro-4-morpholinophenyl)-2-((3-methoxyphenoxy)methyl)-6-methylpyrimidin-4(3H)-one] | 4.10 | 48.76 multiple | 
7 | Cc1ccc(=O)n(-c2ccccc2)c1 [pirfenidone, 5-methyl-1-phenyl-2-(1H)-pyridone] |  |  | could prevent ECM gathering, or even reverse it
